According to the supplement of paper PMC10307832:

Legend:
Test in all cases: relative viability (nuclei count vs DMSO), 5 days (fraction); higher = more cells survive
[1] = tested on: A-427
Summary of the method: (§1)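 Five library-drug doses in √10 steps were combined with a fixed anchor-drug dose, or a single drug was given alone, by pin tool to lung cancer cell lines in 1536-well plates the day after seeding. Nuclei were stained and counted after 5 days. Relative viability is the nuclei count in treated wells over that in vehicle wells, taken as the median of duplicate plates.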

[2] = tested on: HCC-15
Summary of the method: as §1

[3] = tested on: HOP-62
Summary of the method: as §1

[4] = tested on: LC-2-ad
Summary of the method: as §1

[5] = tested on: LOU-NH91
Summary of the method: as §1

[6] = tested on: LXF-289
Summary of the method: as §1

[7] = tested on: NCI-H1734
Summary of the method: as §1

[8] = tested on: NCI-H1755
Summary of the method: as §1

[9] = tested on: NCI-H1792
Summary of the method: as §1

[10] = tested on: NCI-H1915
Summary of the method: as §1

[11] = tested on: NCI-H1975
Summary of the method: as §1

[12] = tested on: NCI-H2126
Summary of the method: as §1

[13] = tested on: NCI-H2228
Summary of the method: as §1

[14] = tested on: NCI-H2342
Summary of the method: as §1

[15] = tested on: NCI-H2347
Summary of the method: as §1

[16] = tested on: NCI-H358
Summary of the method: as §1

[17] = tested on: NCI-H460
Summary of the method: as §1

[18] = tested on: NCI-H647
Summary of the method: as §1

[19] = tested on: PC-3 [JPC-3]
Summary of the method: as §1

[20] = tested on: RERF-LC-KJ
Summary of the method: as §1

[21] = tested on: SK-LU-1
Summary of the method: as §1

[22] = tested on: SW 1573
Summary of the method: as §1

CC1(C)CCC(c2ccc(Cl)cc2)=C(CN2CCN(c3ccc(C(=O)NS(=O)(=O)c4ccc(N[C@H](CCN5CCOCC5)CSc5ccccc5)c(S(=O)(=O)C(F)(F)F)c4)cc3)CC2)C1 [Navitoclax] + CCNC(=O)c1noc(-c2cc(C(C)C)c(O)cc2O)c1-c1ccc(CN2CCOCC2)cc1 [Luminespib] (partner 0.01 µM)
relative viability ([1]; first compound 0.005 µM): 0.902
relative viability ([1]; first compound 0.01581 µM): 0.833
relative viability ([1]; first compound 0.05 µM): 0.804
relative viability ([1]; first compound 0.1581 µM): 0.908
relative viability ([1]; first compound 0.5 µM): 0.948
relative viability ([2]; first compound 0.005 µM): 0.299
relative viability ([2]; first compound 0.01581 µM): 0.284
relative viability ([2]; first compound 0.05 µM): 0.546
relative viability ([2]; first compound 0.1581 µM): 0.352
relative viability ([2]; first compound 0.5 µM): 0.256
relative viability ([3]; first compound 0.005 µM): 0.913
relative viability ([3]; first compound 0.01581 µM): 0.937
relative viability ([3]; first compound 0.05 µM): 0.895
relative viability ([3]; first compound 0.1581 µM): 0.894
relative viability ([3]; first compound 0.5 µM): 0.993
relative viability ([4]; first compound 0.005 µM): 0.993
relative viability ([4]; first compound 0.01581 µM): 1.16
relative viability ([4]; first compound 0.05 µM): 0.912
relative viability ([4]; first compound 0.1581 µM): 0.907
relative viability ([4]; first compound 0.5 µM): 0.856
relative viability ([5]; first compound 0.005 µM): 0.349
relative viability ([5]; first compound 0.01581 µM): 0.362
relative viability ([5]; first compound 0.05 µM): 0.327
relative viability ([5]; first compound 0.1581 µM): 0.321
relative viability ([5]; first compound 0.5 µM): 0.275
relative viability ([6]; first compound 0.005 µM): 0.631
relative viability ([6]; first compound 0.01581 µM): 0.754
relative viability ([6]; first compound 0.05 µM): 0.725
relative viability ([6]; first compound 0.1581 µM): 0.584
relative viability ([6]; first compound 0.5 µM): 0.636
relative viability ([7]; first compound 0.005 µM): 0.174
relative viability ([7]; first compound 0.01581 µM): 0.191
relative viability ([7]; first compound 0.1581 µM): 0.182
relative viability ([7]; first compound 0.5 µM): 0.16
relative viability ([8]; first compound 0.005 µM): 0.381
relative viability ([8]; first compound 0.01581 µM): 0.393
relative viability ([8]; first compound 0.05 µM): 0.332
relative viability ([8]; first compound 0.1581 µM): 0.173
relative viability ([8]; first compound 0.5 µM): 0.426
relative viability ([9]; first compound 0.005 µM): 0.456
relative viability ([9]; first compound 0.01581 µM): 0.685
relative viability ([9]; first compound 0.05 µM): 0.351
relative viability ([9]; first compound 0.5 µM): 0.527
relative viability ([10]; first compound 0.005 µM): 0.749
relative viability ([10]; first compound 0.01581 µM): 0.778
relative viability ([10]; first compound 0.05 µM): 0.793
relative viability ([10]; first compound 0.1581 µM): 0.746
relative viability ([10]; first compound 0.5 µM): 0.829
relative viability ([11]; first compound 0.005 µM): 0.24
relative viability ([11]; first compound 0.01581 µM): 0.309
relative viability ([11]; first compound 0.05 µM): 0.191
relative viability ([11]; first compound 0.1581 µM): 0.118
relative viability ([11]; first compound 0.5 µM): 0.132
relative viability ([12]; first compound 0.005 µM): 0.906
relative viability ([12]; first compound 0.01581 µM): 0.952
relative viability ([12]; first compound 0.05 µM): 0.923
relative viability ([12]; first compound 0.1581 µM): 0.779
relative viability ([12]; first compound 0.5 µM): 0.844
relative viability ([13]; first compound 0.005 µM): 0.148
relative viability ([13]; first compound 0.01581 µM): 0.148
relative viability ([13]; first compound 0.1581 µM): 0.146
relative viability ([13]; first compound 0.5 µM): 0.142
relative viability ([14]; first compound 0.005 µM): 0.683
relative viability ([14]; first compound 0.01581 µM): 0.747
relative viability ([14]; first compound 0.05 µM): 0.476
relative viability ([14]; first compound 0.1581 µM): 0.723
relative viability ([14]; first compound 0.5 µM): 0.683
relative viability ([15]; first compound 0.005 µM): 0.467
relative viability ([15]; first compound 0.01581 µM): 0.62
relative viability ([15]; first compound 0.1581 µM): 0.372
relative viability ([15]; first compound 0.5 µM): 0.312
relative viability ([16]; first compound 0.005 µM): 0.418
relative viability ([16]; first compound 0.01581 µM): 0.325
relative viability ([16]; first compound 0.05 µM): 0.264
relative viability ([16]; first compound 0.1581 µM): 0.388
relative viability ([16]; first compound 0.5 µM): 0.242
relative viability ([17]; first compound 0.005 µM): 0.0372
relative viability ([17]; first compound 0.01581 µM): 0.0368
relative viability ([17]; first compound 0.05 µM): 0.0365
relative viability ([17]; first compound 0.1581 µM): 0.0311
relative viability ([17]; first compound 0.5 µM): 0.033
relative viability ([18]; first compound 0.005 µM): 0.271
relative viability ([18]; first compound 0.01581 µM): 0.215
relative viability ([18]; first compound 0.05 µM): 0.17
relative viability ([18]; first compound 0.1581 µM): 0.206
relative viability ([18]; first compound 0.5 µM): 0.133
relative viability ([19]; first compound 0.005 µM): 0.738
relative viability ([19]; first compound 0.01581 µM): 0.807
relative viability ([19]; first compound 0.05 µM): 0.765
relative viability ([19]; first compound 0.1581 µM): 0.684
relative viability ([19]; first compound 0.5 µM): 0.724
relative viability ([20]; first compound 0.005 µM): 1.32
relative viability ([20]; first compound 0.01581 µM): 1.23
relative viability ([20]; first compound 0.05 µM): 1.17
relative viability ([20]; first compound 0.1581 µM): 1.18
relative viability ([20]; first compound 0.5 µM): 1.04
relative viability ([21]; first compound 0.005 µM): 0.205
relative viability ([21]; first compound 0.01581 µM): 0.179
relative viability ([21]; first compound 0.05 µM): 0.199
relative viability ([21]; first compound 0.1581 µM): 0.199
relative viability ([21]; first compound 0.5 µM): 0.201
relative viability ([22]; first compound 0.005 µM): 0.145
relative viability ([22]; first compound 0.01581 µM): 0.213
relative viability ([22]; first compound 0.05 µM): 0.429
relative viability ([22]; first compound 0.1581 µM): 0.212
relative viability ([22]; first compound 0.5 µM): 0.206
